These results are taken from patent EP4685128A1, “NOVEL 2-(1-HYDROXYPENTYL) BENZOIC ACID CYCLOALKYL AMINE SALT” (priority 2023, dated 2024).

The subject of data set [1] is MCAO rats. Briefly: Cerebral infarct volume (TTC staining) in rat MCAO ischemia-reperfusion model. The data set is classed as in vivo. To be noted: for extent of cerebral infarction compared with the model group: 24 h, t-test versus model group, doses as in Table 2; for Percentage of cerebral infarction volume (%): 24 hours after MCAO ischemia, tail vein, single dose, n=10.

Data set [2] concerns MCAO rats. Briefly: Neurological deficit scoring (Longa method) in rat MCAO ischemia-reperfusion stroke model. As to conditions: for neurological symptoms of rats compared with the model group: 24 h postoperatively, t-test versus model group, doses as in Table 1; for Score 2h: neurological deficit score 2 h after ischemia (administration started at reperfusion after 2 h); for Score 2h / Score 24h: tail vein, single dose, n=10; for Score 24h: neurological deficit score 24 h post-surgery.
Description: Administration was initiated upon reperfusion after 2 hours of ischemia. The model and the sham operation group were given an equal volume 5% glucose injection solution via tail vein injection, while the other groups were injected with the corresponding drugs via tail vein, each with a single dose. […] Performing modeling surgery: The rat MCAO model was established with reference to the Longa intraluminal filament occlusion method. Nylon monofilament was cut into 2 cm lengths, the tip was dipped into a tiny amount of molten paraffin, after cooling, the ends of the nylon threads were completely wrapped for later use. The rats were completely anesthetized with 3% sodium pentobarbital (30 mg/kg), and placed supine, and secured on a surgical board. The cervical skin was prepared and disinfected, a 2-cm mid line incision was made. The left common carotid artery was bluntly isolated, and the external and internal carotid arteries were dissected free along the common carotid artery. The distal ends of the common carotid artery and the external carotid artery were ligated, and the internal carotid artery was occluded using hemostatic forceps. A small arteriotomy was made in the common carotid artery and the prepared nylon monofilament was inserted through the opening. The wax-coated tip was inserted into the common carotid artery and advanced into the internal carotid artery, the hemostat was released, and the advancement of the wax tip was stopped when it was 13-16 mm from the opening. The filament was secured, and the cervical incision was closed. After 2 h of occlusion, rats were anesthetized and the filament was withdrawn. In the sham operation group, rats were completely anesthetized with only 3% sodium pentobarbital. After cervical skin preparation and incision, the common carotid artery was bluntly isolated, and the wound immediately closed, without filament insertion. […] Neurological deficit scoring: scoring time: before modeling, 2 h after ischemia, and 24 h post-surgery, all surviving animals were scored in a blinded manner using a modified neurological deficit score. The scoring criteria of Longa's method were as follows: 0: normal neurological function; 1: mild neurological deficit: when suspended by the tail, the animal's left forelimb was flexed; 2: moderate neurological deficit: when placed on a smooth surface, the animal circles to the left side while walking; 3: moderate neurological deficit: at rest, the animal leans to the left side; 4: depressed consciousness with no spontaneous limb movements; 5: unresponsive to stimuli or death. […] Result analysis: The t-test was used to compare the behavioral test scores between groups.

Data set [3] deals with platelet aggregation in rats. The data set is described as follows: ADP-induced platelet aggregation in platelet-rich plasma of rats after oral gavage. As to conditions: for Maximum platelet aggregation rate (%): blood taken 3 hours after gavage, 20µM ADP, platelet-rich plasma, n=10; for platelet aggregation rate compared with the solvent control group: significance versus solvent control group, doses as in Table 3. The data set is classed as in vivo.
Description: After oral gavage administration for 3 hours on the same day, blood was collected from the abdominal aorta to obtain platelet-rich plasma from each group. Platelet aggregation was induced by 20µM ADP, and the maximum platelet aggregation rate in platelet-rich plasma was determined by platelet aggregometer, to evaluate and compare the effects of platelet aggregation in rats.

In data set [4] the test system is SD rats. The data set is described as follows: Repeated administration toxicity test in rats (14 days, tail vein). As to conditions: once daily for 14 consecutive days, n=10.
Data set [5] in a line: Stability test (influence factor test, Chinese Pharmacopoeia 2020 General Chapter 9001). As to conditions: for Decomposition product butylphthalide %: HPLC; for appearance / main peak and butylphthalide content: 30 days under open high-temperature and light exposure.
Description: An appropriate amount of each compound to be tested was taken, and the influence factor test was conducted according to the General Chapter 9001 of Part 4 of the 2020 Edition of the Chinese Pharmacopoeia. The appearance of the compounds and the content of the main degradation product, butylphthalide, were detected respectively on day 0 and day 30 for each compound. The detection of butylphthalide was performed using high performance liquid chromatography, with a column packed with octadecylsilane-bonded silica gel, and a mobile phase of methanol-water (65:35).
Data set [6] can be described thus: Solubility test (Chinese Pharmacopoeia 2020 method). The data set is classed as physicochemical.
For data set [7] the following is noted: as stated for CN1523003A, background art; cited from earlier work.
The conditions of data set [8]: as stated for CN1523003A, background art; cited from earlier work. This is another data set of the same source.

In the case of `NC12CC3CC(CC(C3)C1)C2` [Amantadine, amantadine, reference compound], in data set [1], the “extent of cerebral infarction compared with the model group” value (“extent … compared with the model group” for short) is on record as “no significant inhibitory effect”. Besides, the “Percentage of cerebral infarction volume (%)” value (shortened to “Percentage … (%)”) in data set [1] (0.016 mmol/kg) is 35.1±4.56%. Besides, in data set [2], the “neurological symptoms of rats compared with the model group” value is reported as “no significant improvement”. In addition, the “Score 2h” value in data set [2] (group dose 0.016 mmol/kg) is reported as 2.5±1.08. Further, the “Score 24h” value in data set [2] (0.016 mmol/kg) worked out at 3.00±0.82.

Consider `CC(=O)Oc1ccccc1C(=O)O` [Aspirin, reference compound], for which the “Maximum platelet aggregation rate (%)” value in data set [3] (ig 100 mg/kg) is on record as 27.00±6.48 %. Further, the “platelet aggregation rate compared with the solvent control group” value in data set [3] is “highly significantly different”.

Turning to `CCCCC1OC(=O)c2ccccc21` (stereo not shown) [Butylphthalide, reference compound], in data set [1], the “extent … compared with the model group” value was “significantly reduced”. The “Percentage … (%)” value in data set [1] (0.053 mmol/kg) is given as 31.0±7.50 %. For the same molecule, the “Maximum platelet aggregation rate (%)” value in data set [3] (ig 200 mg/kg) is listed as 57.50±9.05 %. Besides, in data set [3], the “platelet aggregation rate compared with the solvent control group” value is reported as “significantly different”. The “neurological symptoms of rats compared with the model group” value in data set [2] is reported as “significantly improved”. In data set [2] (group dose 0.053 mmol/kg), the “Score 2h” value is recorded as 2.8±1.03. Besides, the “Score 24h” value in data set [2] (0.053 mmol/kg) came out at 2.10±0.99.

With `CCCCC(O)c1ccccc1C(=O)O.NC12CC3CC(CC(C3)C1)C2` (stereo not shown) [Compound 1, amantadine 2-(1-hydroxypentyl)benzoate salt], the “extent … compared with the model group” value in data set [1] was “significantly reduced”. For the same molecule, the “Percentage … (%)” value in data set [1] (0.016 mmol/kg) came to 25.7±5.29 %. In data set [3] (ig 200 mg/kg), the “Maximum platelet aggregation rate (%)” value was 34.60±9.57 %. Also, the “Mortality rate (%)” value in data set [4] (high dose 105 mg/kg), in data set [4] (low dose 15 mg/kg) and in data set [4] (medium dose 45 mg/kg) was 0% each time. The Property entry in data set [5] (0 day) is “White powder”; in data set [5] (high humidity RH92.5%, 30 days), “White powder”. Moreover, the “Decomposition product butylphthalide %” value was 0.114% in data set [5] (0 day) and 0.298% in data set [5] (high humidity RH92.5%, 30 days). Also, the appearance result in data set [5] is given as “remains unchanged”. In addition, the “main peak and butylphthalide content” value in data set [5] is given as “minimal variation”. In addition, in data set [2], the “neurological symptoms of rats compared with the model group” value is reported as “highly significant”. Further, in data set [2] (group dose 0.016 mmol/kg), the “Score 2h” value is 2.8±1.14. In addition, in data set [2] (0.016 mmol/kg), the “Score 24h” value came to 1.60±0.84.

Take `CC1C2CC3CC(C2)CC1(N)C3.CCCCC(O)c1ccccc1C(=O)O` (stereo not shown) [Compound 3, 2-methyladamantan-1-amine 2-(1-hydroxypentyl)benzoate salt]: the “Maximum platelet aggregation rate (%)” value in data set [3] (ig 200 mg/kg) stood at 37.50±9.42 %.

`CC12CC3CC(C)(C1)CC(N)(C3)C2.CCCCC(O)c1ccccc1C(=O)O` (stereo not shown) [Compound 4, 3,5-dimethyladamantane-1-amine 2-(1-hydroxypentyl)benzoate salt]: the “extent … compared with the model group” value in data set [1] was “significantly reduced”. The “Percentage … (%)” value in data set [1] (0.016 mmol/kg) was 25.1±4.41 %. For the same molecule, the “Maximum platelet aggregation rate (%)” value in data set [3] (ig 200 mg/kg) came out at 38.10±6.24 %. Moreover, the Solubility entry is given as “Completely soluble” in data set [6] (medium Water, about 0.01 g sample in 9.0 ml); “Completely soluble” in data set [6] (medium pH4.5, about 0.01 g sample in 9.0 ml); “Completely soluble” in data set [6] (medium pH6.8, about 0.01 g sample in 9.0 ml). Besides, the “Mortality rate (%)” value in data set [4] (high dose 105 mg/kg), in data set [4] (low dose 15 mg/kg) and in data set [4] (medium dose 45 mg/kg) was 0% in each case. Moreover, the Property entry was “White powder” in data set [5] (0 day) and “White powder” in data set [5] (high humidity RH92.5%, 30 days). Moreover, the “Decomposition product butylphthalide %” value in data set [5] (0 day) stood at 0.107%; in data set [5] (high humidity RH92.5%, 30 days), 0.258%. Moreover, in data set [5], the appearance entry is reported as “remains unchanged”. In addition, in data set [5], the “main peak and butylphthalide content” value was “minimal variation”. The “neurological symptoms of rats compared with the model group” value in data set [2] was “highly significant”. Further, the “Score 2h” value in data set [2] (group dose 0.016 mmol/kg) is recorded as 2.7±1.16. Further, the “Score 24h” value in data set [2] (0.016 mmol/kg) worked out at 1.50±0.53.

Turning to `CCCC12CC3CC(CC(N)(C3)C1)C2.CCCCC(O)c1ccccc1C(=O)O` (stereo not shown) [Compound 6, 3-n-propyladamantane-1-amine 2-(1-hydroxypentyl)benzoate salt], the “Maximum platelet aggregation rate (%)” value in data set [3] (ig 200 mg/kg) amounted to 40.30±12.26 %.

In the case of `CCCCC(O)c1ccccc1C(=O)O.NC12CC3CC(C1)C(F)C(C3)C2` (stereo not shown) [Compound 7, 4-fluoroadamantane-1-amine 2-(1-hydroxypentyl)benzoate salt], the “Maximum platelet aggregation rate (%)” value in data set [3] (ig 200 mg/kg) came out at 37.90±12.60 %.

For the molecule `CCCCC(O)c1ccccc1C(=O)O.N[C@@H]1[C@@H]2C[C@@H]3C[C@H]1C[C@@](O)(C3)C2` (stereo not drawn) [Compound 10, trans-1-hydroxyadamantan-4-amine 2-(1-hydroxypentyl)benzoate salt], the “extent … compared with the model group” value in data set [1] is given as “significantly reduced”. In data set [1] (0.016 mmol/kg), the “Percentage … (%)” value is on record as 25.8±4.52 %. Besides, the “Maximum platelet aggregation rate (%)” value in data set [3] (ig 200 mg/kg) turned out to be 38.20±12.25 %. Further, the “neurological symptoms of rats compared with the model group” value in data set [2] is “highly significant”. In addition, the “Score 2h” value in data set [2] (group dose 0.016 mmol/kg) was found to be 2.9±1.52. For the same molecule, the “Score 24h” value in data set [2] (0.016 mmol/kg) is reported as 1.61±1.07.

In the case of `CCCCC(O)c1ccccc1C(=O)O.NC1CCC(O)CC1` (stereo not shown) [Compound 13, 4-hydroxycyclohexan-1-amine 2-(1-hydroxypentyl)benzoate salt], in data set [3] (ig 200 mg/kg), the “Maximum platelet aggregation rate (%)” value is 42.10±5.99 %.

As for `CC1CC1N.CCCCC(O)c1ccccc1C(=O)O` (stereo not shown) [Compound 15, 2-methylcyclopropane-1-amine 2-(1-hydroxypentyl)benzoate salt], the “Maximum platelet aggregation rate (%)” value in data set [3] (ig 200 mg/kg) came to 41.10±6.45 %.

For `CC(C)NC(C)C.CCCCC(O)c1ccccc1C(=O)O` (stereo not shown) [Diisopropylamine salt, 2-(1-hydroxypentyl)benzoic acid diisopropylamine salt, reference compound], in data set [5] (0 day), the Property result is reported as “White powder” and the “Decomposition product butylphthalide %” value came to 0.087%. Further, in data set [5] (high humidity RH92.5%, 30 days), the Property result is “White powder” and the “Decomposition product butylphthalide %” value turned out to be 8.025%.

As to `CCCCC(O)c1ccccc1C(=O)O.c1ccc(CNCCNCc2ccccc2)cc1` [N'N-dibenzylethylenediamine salt, reference compound], the “Maximum platelet aggregation rate (%)” value in data set [3] (ig 200 mg/kg) came out at 46.6±10.78 %. Also, in data set [3], the “platelet aggregation rate compared with the solvent control group” value is recorded as “highly significantly different”. The toxicity result in data set [7] is listed as “lower toxicity”.

For `CCCCC(O)c1ccccc1C(=O)[O-].[K+]` (stereo not shown) [Potassium salt, 2-(1-hydroxypentyl)benzoic acid potassium salt, reference compound], in data set [1], the “extent … compared with the model group” value is “significantly reduced”. Besides, the “Percentage … (%)” value in data set [1] (0.016 mmol/kg) is on record as 29.7±5.72 %. For the same molecule, the “Maximum platelet aggregation rate (%)” value in data set [3] (ig 200 mg/kg) was 48.50±8.29 %. Moreover, in data set [3], the “platelet aggregation rate compared with the solvent control group” value is given as “highly significantly different”. The hygroscopicity result in data set [8] is reported as “highly hygroscopic”. Moreover, the toxicity entry in data set [7] is “greater toxicity”. Also, in data set [5] (0 day), the Property entry was “White powder” and the “Decomposition product butylphthalide %” value is reported as 0.090%. In addition, in data set [5] (high humidity RH92.5%, 30 days), the Property result is “Partially deliquescent and liquefied”; the “Decomposition product butylphthalide %” value worked out at 25.687%. Besides, the “neurological symptoms of rats compared with the model group” value in data set [2] is “significantly improved”. The “Score 2h” value in data set [2] (group dose 0.016 mmol/kg) was determined as 2.9±0.99. Besides, the “Score 24h” value in data set [2] (0.016 mmol/kg) was 1.90±0.74.

`CC(C)(C)N.CCCCC(O)c1ccccc1C(=O)O` (stereo not shown) [Tert-butylamine salt, 2-(1-hydroxypentyl)benzoic acid tert-butylamine salt, reference compound]: the toxicity result in data set [7] is “highly toxic”. Further, in data set [5] (0 day), the Property entry is “White powder” and the “Decomposition product butylphthalide %” value came out at 0.041%. Moreover, in data set [5] (high humidity RH92.5%, 30 days), the Property entry is given as “White powder” and the “Decomposition product butylphthalide %” value worked out at 10.214%.

Take `CCCCC(O)c1ccccc1C(=O)O.NCc1ccccc1` (stereo not shown) [benzylamine salt]: the toxicity result in data set [7] was “highly toxic”.

Consider “Bicyclo[2,2,1]heptane-2-amine 2-(1-hydroxypentyl)benzoate salt [Compound 16]”, for which the “Maximum platelet aggregation rate (%)” value in data set [3] (ig 200 mg/kg) is reported as 44.10±5.15 %.
